# Where two headings read alike, the source gives them in different places.
# Assays:
# [1] = Pharmacokinetics, rat oral study; assay type: in vivo, Sprague Dawley rats; conditions: male, Sprague Dawley, label = analyte; for Cmax: read-out: Cmax/C0
# Excerpt: Pharmacokinetic Data Analysis.
# Statistical Data Analysis.
# Plasma concentration vs. time data was subjected to noncompartmental pharmacokinetic (PK) analysis.
# S. aureus (ATCC 29213) = test: Mouse S. aureus kidney infection model; assay type: in vivo, CD-1 mice; conditions: after 24 hours
# Method: Animals: female CD-1 mice (8-10 weeks of age; 6/group), were obtained from Charles River Laboratories and were housed and maintained in accordance with the Guide to the Care and Use of Experimental Animals. Methicillin-sensitive S. aureus (MSSA) strain ATCC 29213 was obtained from the American Type Culture Collection. To prepare stocks for animal studies S. aureus was plated on Mueller Hinton Agar plates and incubated at 37° C. overnight. 3-4 colonies from the plate were used to inoculate 5 mL Mueller Hinton Broth (MHB) that was incubated for 8 hours at 37° C. with shaking at 300 RPM. The 5 mL 8-hour culture was diluted 20-fold into 100 mL and incubated overnight (12-14 hours). The bacteria were pelleted for 20 minutes at 3000× and washed twice with Phosphate-Buffered Saline (PBS) containing 0.5% Bovine Serum Albumin (BSA). Aliquots (1 mL) containing ˜1×10^10 cfu in PBS/20% Glycerol were frozen and stored at −80° C. until the day of use. Stock titers were confirmed by serial dilution and plating on Mueller Hinton agar plates. Prior to inoculation, bacterial stocks were thawed and washed once with PBS/BSA. The stocks were then diluted with PBS/BSA to a final concentration of 1×10^9 cfu/mL to give an inoculum of approximately 1-2×10^8 cfu per mouse in a volume of 100 uL. […] Injections were given intravenously via the tail vein using a sterile 30 gauge needle. Upon completion of the mouse infections, the bacterial stocks used to challenge the mice were plated and counted to verify the concentration of the inocula. […] Fisher Scientific). During collection and homogenization all of the samples were kept on ice and the homogenizer was washed thoroughly and sterilized between each sample. Homogenates were serially diluted in sterile PBS/BSA and plated on MH agar to determine bacterial counts per pair of kidneys. CD-1 mice (6/group) were challenged IV with S. aureus (ATCC 29213) at 2×10^8 cfu/mouse. […] The 30-minute and 6-hour treatment groups were treated once, while the 24-hour group received a second treatment 10 hours after the first dose. […] Burdens from pairs of kidneys for each mouse and the median for each group of mice were calculated. CD-1 mice (6/group) were challenged IV with S. aureus (ATCC 29213) at 2×10^8 cfu/mouse. After 2 hours a single group of mice (Early Control (EC)) was euthanized and the kidneys harvested, homogenized and plated to quantitate S. aureus burdens. The additional groups of infected mice were treated via oral gavage with Vehicle at 10 ml/kg (10% VitE TPGS; […] After 24 hours the groups of treated mice were euthanized and the kidneys harvested, homogenized and plated to quantitate S. aureus burdens. Burdens from pairs of kidneys for each mouse and the median for each group of mice were summarized. CD-1 mice (8/group) were challenged IV with S. aureus (ATCC 29213) at 2×10^8 cfu/mouse. After 2 hours a single group of mice (Early Control (EC)) was euthanized and the kidneys harvested, homogenized and plated to quantitate S. aureus burdens. The additional groups of infected mice were treated via oral gavage with Vehicle at 10 ml/kg (Water; […] After 24 hours the groups of treated mice were euthanized and the kidneys harvested, homogenized and plated to quantitate S. aureus burdens. Burdens from pairs of kidneys for each mouse and the median for each group of mice were summarized.
# Enterococcus faecalis = test: Gyrase MIC, microdilution broth method (Protocol 1); conditions: ATCC29212
# [2] = single oral dose 16 (10) mg/kg Compound W
# [3] = single oral dose 49 (30) mg/kg Compound W
# [4] = single oral dose 99 (60) mg/kg Compound W
# [5] = single oral dose 166 (100) mg/kg Compound W
# [6] = plasma, 30 mg/kg, Compound W dosed orally 30 mg/kg in 0.5% MC
# [7] = plasma, 100 mg/kg, Compound W dosed orally 100 mg/kg in 0.5% MC
# [8] = plasma, 300 mg/kg, Compound W dosed orally 300 mg/kg in 0.5% MC
# [9] = plasma, 300 mg/kg, Compound W dosed orally 300 mg/kg in 20% CAPT, 1% HPMC-AS, 1% PVP
smiles,measurement,setting,value
"CCNC(=O)Nc1nc2cc(-c3cnc(C(C)(C)O)nc3)c(F)c([C@H]3CCCO3)c2[nH]1 [Compound 23, 1-ethyl-3-[6-fluoro-5-[2-(1-hydroxy-1-methyl-ethyl)pyrimidin-5-yl]-7-[(2R)-tetrahydrofuran-2-yl]-1H-benzimidazol-2-yl]urea]",AUC,"[1]; in vivo, 3 mg/kg, rat plasma, Compound W dosed orally 3 mg/kg in 0.5% MC, read-out: AUC",311 ng·h/mL
same,Cmax,"[1]; in vivo, 3 mg/kg, rat plasma, Compound W dosed orally 3 mg/kg in 0.5% MC",117 ng/mL
same,AUC,"[1]; in vivo, 30 mg/kg, rat plasma, Compound W dosed orally 30 mg/kg in 0.5% MC, read-out: AUC",22500 ng·h/mL
same,Cmax,"[1]; in vivo, 30 mg/kg, rat plasma, Compound W dosed orally 30 mg/kg in 0.5% MC",2900 ng/mL
same,AUC,"[1]; in vivo, 100 mg/kg, rat plasma, Compound W dosed orally 100 mg/kg in 0.5% MC, read-out: AUC",77100 ng·h/mL
same,Cmax,"[1]; in vivo, 100 mg/kg, rat plasma, Compound W dosed orally 100 mg/kg in 0.5% MC",6600 ng/mL
same,AUC,"[1]; in vivo, 300 mg/kg, rat plasma, Compound W dosed orally 300 mg/kg in 0.5% MC, read-out: AUC",223000 ng·h/mL
same,Cmax,"[1]; in vivo, 300 mg/kg, rat plasma, Compound W dosed orally 300 mg/kg in 0.5% MC",11700 ng/mL
same,AUC,"[1]; in vivo, 300 mg/kg, rat plasma, Compound W dosed orally 300 mg/kg in 20% CAPT, 1% HPMC-AS, 1% PVP, read-out: AUC",295000 ng·h/mL
same,Cmax,"[1]; in vivo, 300 mg/kg, rat plasma, Compound W dosed orally 300 mg/kg in 20% CAPT, 1% HPMC-AS, 1% PVP",16200 ng/mL
same,AUC,"[1]; plasma, 3 mg/kg, Compound W dosed orally 3 mg/kg in 0.5% MC, read-out: AUCextrap",314 ng·h/mL
same,AUC,"[1]; plasma, 30 mg/kg, Compound W dosed orally 30 mg/kg in 0.5% MC, read-out: AUCextrap",22600 ng·h/mL
same,AUC,"[1]; plasma, 100 mg/kg, Compound W dosed orally 100 mg/kg in 0.5% MC, read-out: AUCextrap",77400 ng·h/mL
"CCNC(=O)Nc1nc2cc(-c3cnc(C(C)(C)OP(=O)([O-])[O-])nc3)c(F)c([C@H]3CCCO3)c2[nH]1.[Na+].[Na+] [Compound W, disodium (R)-2-(5-(2-(3-ethylureido)-6-fluoro-7-(tetrahydrofuran-2-yl)-1H-benzo[d]imidazol-5-yl)pyrimidin-2-yl)propan-2-yl phosphate]",Median Kidney Burden (Log10 CFU/kidneys),S. aureus (ATCC 29213); single oral dose 16 (10) mg/kg Compound W (dose equivalent in brackets),3.69 Log10 CFU/kidneys
same,Log10 Difference vs. Early Control,S. aureus (ATCC 29213); [2],−0.71
same,Log10 Difference vs. Late Control,S. aureus (ATCC 29213); [2],−2.25
same,Log10 Difference vs. Early Control,S. aureus (ATCC 29213); [3],−1.18
same,Log10 Difference vs. Late Control,S. aureus (ATCC 29213); [3],−2.72
same,Median Kidney Burden (Log10 CFU/kidneys),S. aureus (ATCC 29213); [3],3.22 Log10 CFU/kidneys
same,Log10 Difference vs. Early Control,S. aureus (ATCC 29213); [4],−1.08
same,Log10 Difference vs. Late Control,S. aureus (ATCC 29213); [4],−2.62
same,Median Kidney Burden (Log10 CFU/kidneys),S. aureus (ATCC 29213); [4],3.32 Log10 CFU/kidneys
same,Log10 Difference vs. Early Control,S. aureus (ATCC 29213); [5],−1.46
same,Log10 Difference vs. Late Control,S. aureus (ATCC 29213); [5],−3.00
same,Median Kidney Burden (Log10 CFU/kidneys),S. aureus (ATCC 29213); [5],2.94 Log10 CFU/kidneys
same,reduction of bacterial burdens versus the early control,"S. aureus (ATCC 29213); single oral doses of 16, 49, 99 and 166 mg/kg Compound W",0.7-1.5 logs
same,MIC,Enterococcus faecalis,1 µg/mL
same,Tmax,[1]; [6],3.3 h
same,AUC,"[1]; plasma, 30 mg/kg, Compound W dosed orally 30 mg/kg in 0.5% MC, read-out: AUC",178 ng·h/mL
same,Cmax,[1]; [6],22 ng/mL
same,Tmax,[1]; [7],0.8 h
same,AUC,"[1]; plasma, 100 mg/kg, Compound W dosed orally 100 mg/kg in 0.5% MC, read-out: AUC",61 ng·h/mL
same,Cmax,[1]; [7],21 ng/mL
same,Tmax,[1]; [8],1.2 h
same,AUC,"[1]; plasma, 300 mg/kg, Compound W dosed orally 300 mg/kg in 0.5% MC, read-out: AUC",324 ng·h/mL
same,Cmax,[1]; [8],2330 ng/mL
same,Tmax,[1]; [9],1.8 h
same,AUC,"[1]; plasma, 300 mg/kg, Compound W dosed orally 300 mg/kg in 20% CAPT, 1% HPMC-AS, 1% PVP, read-out: AUC",2370 ng·h/mL
same,Cmax,[1]; [9],600 ng/mL
